Assay results published in patent US20140120087A1, “TRIAZOLOPYRIDINES” (BAYER INTELLECTUAL PROPERTY GMBH, priority 2011, published 2014).

Assays:
[1] = biological target: T1, Mps-1 kinase (Homo sapiens, UniProt P33981); experiment: Mps-1 kinase assay with 2 mM ATP (TR-FRET)
T1 sequence (P33981 1-857): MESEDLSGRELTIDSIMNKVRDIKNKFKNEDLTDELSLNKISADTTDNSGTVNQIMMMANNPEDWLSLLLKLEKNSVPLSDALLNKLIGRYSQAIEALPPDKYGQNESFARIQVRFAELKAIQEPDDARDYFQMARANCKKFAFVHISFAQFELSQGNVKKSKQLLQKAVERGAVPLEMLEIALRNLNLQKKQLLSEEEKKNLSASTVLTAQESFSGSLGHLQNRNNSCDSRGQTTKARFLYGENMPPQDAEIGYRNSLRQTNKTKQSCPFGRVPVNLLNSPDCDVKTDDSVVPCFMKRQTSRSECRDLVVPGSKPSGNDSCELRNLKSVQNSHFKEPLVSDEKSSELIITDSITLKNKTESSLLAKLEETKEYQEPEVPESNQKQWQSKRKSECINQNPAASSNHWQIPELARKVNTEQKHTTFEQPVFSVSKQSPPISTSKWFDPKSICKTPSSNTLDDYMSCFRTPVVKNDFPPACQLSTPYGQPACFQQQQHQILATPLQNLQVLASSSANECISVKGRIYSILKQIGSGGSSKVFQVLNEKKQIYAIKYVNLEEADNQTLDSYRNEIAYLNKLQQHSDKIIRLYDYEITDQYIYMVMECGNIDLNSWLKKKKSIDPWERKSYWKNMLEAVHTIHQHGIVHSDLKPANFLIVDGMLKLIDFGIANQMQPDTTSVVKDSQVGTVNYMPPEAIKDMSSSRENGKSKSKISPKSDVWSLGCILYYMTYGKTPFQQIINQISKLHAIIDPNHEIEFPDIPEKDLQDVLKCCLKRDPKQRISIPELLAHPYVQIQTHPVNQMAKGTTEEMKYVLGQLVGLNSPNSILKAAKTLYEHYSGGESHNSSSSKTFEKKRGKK

[2] = Hydrolytic stability assay at pH 2; type: physicochemical; conditions: buffer pH 2, 37° C., compounds of the invention
Description: The hydrolytic stability assay investigates the stability of a compound in an aqueous buffer system. Standard solution stability assay is run in 0.05 M Phosphate buffer at pH 7.4 (pH of blood plasma) at 37° C. As compounds in the GI tract are exposed to a wide variety of pHs any relevant pH (as pH 2 to simulate the acidic condition of the GI tract in the following experiment) can be chosen. Compounds are incubated in relevant solution at 37° C. and analyzed by HPLC immediately after incubation and after 1, 2 and 24 hrs. Degradation rate (decay in %) is calculated by relating peak areas after 1, 2 and 24 hrs to the time zero injection.
Compound is available as 10 mM in DMSO (solution 1). 2.5 μL of solution 1 is dissolved in 1 mL acetonitrile leading to solution 2. Poorly soluble compounds may demand another dilution step of solution 2 (1:5 and 1:10 respectively) in Acetonitrile). Solution 2 is incubated at 37° C. in a tempered HPLC autosampler. 1 mL buffer pH 2 is transferred into an HPLC vial. 100 μL of solution 2 is added to the buffer pH 2 solution and mixed thoroughly. Immediately after mixing the combined solution is injected into the HPLC to give the time zero injection. Injections are repeated after 1, 2 and 24 hrs.
The degradation rate (decay in %) is calculated using HPLC software Millennium and Excel respectively.

[3] = biological target: T1, Mps-1 kinase; experiment: Mps-1 kinase assay with 10 μM ATP (TR-FRET)

Row | IC50 [1] | Hydrolysis at pH 2; Decay in % after 24 h [2] | IC50 [3] | SMILES
1 | ≤ 1 nM | <10% | ≤ 1 nM | CCOc1cc(C(=O)NCC(C)(C)O)ccc1Nc1nc2ccc(-c3ccc(C(=O)NCc4ccc(F)cc4)cc3)cn2n1 [Example 02.7, 3-ethoxy-4-[(6-{4-[(4-fluorobenzyl)carbamoyl]phenyl}[1,2,4]triazolo[1,5-α]pyridin-2-yl)amino]-N-(2-hydroxy-2-methylpropyl)benzamide]
2 | 1.5 nM | <10% | ≤ 1 nM | COc1cc(C(=O)NC(C)(C)CO)ccc1Nc1nc2ccc(-c3ccc(C(=O)NCc4ccc(F)cc4)cc3)cn2n1 [Example 02.8, 4-[(6-{4-[(4-fluorobenzyl)carbamoyl]phenyl}[1,2,4]triazolo[1,5-α]pyridin-2-yl)amino]-N-(1-hydroxy-2-methylpropan-2-yl)-3-methoxybenzamide]
3 | 2.2 nM | <10% | ≤ 1 nM | COc1cc(C(=O)N(C)CCN(C)C(C)=O)ccc1Nc1nc2ccc(-c3ccc(C(=O)NCc4ccc(F)cc4)cc3)cn2n1 [Example 02.9, N-{2-[acetyl(methyl)amino]ethyl}-4-[(6-{4-[(4-fluorobenzyl)carbamoyl]-phenyl}[1,2,4]triazolo[1,5-α]pyridin-2-yl)amino]-3-methoxy-N-methylbenzamide]
4 | 2.3 nM | <10% | ≤ 1 nM | CCOCCNC(=O)c1ccc(Nc2nc3ccc(-c4ccc(C(=O)NCc5ccc(F)cc5)cc4)cn3n2)c(OC)c1 [Example 02.10, N-(2-ethoxyethyl)-4-[(6-{4-[(4-fluorobenzyl)carbamoyl]phenyl}[1,2,4]-triazolo[1,5-α]pyridin-2-yl)amino]-3-methoxybenzamide]
5 | ≤ 1 nM | <10% | ≤ 1 nM | CNCCN(C)C(=O)c1ccc(Nc2nc3ccc(-c4ccc(C(=O)NCc5ccc(F)cc5)cc4)cn3n2)c(OC)c1 [Example 02.11, 4-[(6-{4-[(4-fluorobenzyl)carbamoyl]phenyl}[1,2,4]triazolo[1,5-α]pyridin-2-yl)amino]-3-methoxy-N-methyl-N-[2-(methylamino)ethyl]benzamide]
6 | ≤ 1 nM | <10% | ≤ 1 nM | CCOc1cc(C(=O)N(C)CCO)ccc1Nc1nc2ccc(-c3ccc(C(=O)NCc4ccc(F)cc4)cc3)cn2n1 [Example 02.12, 3-ethoxy-4-[(6-{4-[(4-fluorobenzyl)carbamoyl]phenyl}[1,2,4]triazolo[1,5-α]pyridin-2-yl)amino]-N-(2-hydroxyethyl)-N-methylbenzamide]
7 | ≤ 1 nM | <10% | ≤ 1 nM | CNC(=O)c1ccc(Nc2nc3ccc(-c4ccc(C(=O)NCc5ccc(F)cc5)cc4)cn3n2)c(OC)c1 [Example 02.13, 4-[(6-{4-[(4-fluorobenzyl)carbamoyl]phenyl}[1,2,4]triazolo[1,5-α]pyridin-2-yl)amino]-3-methoxy-N-methylbenzamide]
8 | 2.4 nM | <10% | ≤ 1 nM | COc1cc(C(=O)NC(C)(C)C)ccc1Nc1nc2ccc(-c3ccc(C(=O)NCc4ccc(F)cc4)cc3)cn2n1 [Example 02.14, N-tert-butyl-4-[(6-{4-[(4-fluorobenzyl)carbamoyl]phenyl}[1,2,4]triazolo-[1,5-α]pyridin-2-yl)amino]-3-methoxybenzamide]
9 | ≤ 1 nM | <10% | ≤ 1 nM | COc1cc(C(=O)NCCS(C)(=O)=O)ccc1Nc1nc2ccc(-c3ccc(C(=O)NCc4ccc(F)cc4)cc3)cn2n1 [Example 02.15, 4-[(6-{4-[(4-fluorobenzyl)carbamoyl]phenyl}[1,2,4]triazolo[1,5-α]pyridin-2-yl)amino]-3-methoxy-N-[2-(methylsulfonyl)ethyl]benzamide]

The next lines start with the molecule.

Row | SMILES | IC50 [1] | Hydrolysis at pH 2; Decay in % after 24 h [2] | IC50 [3]
10 | O=C(Cc1ccc(F)cc1)Nc1ccc(-c2ccc3nc(Nc4ccc(C(=O)NCC(F)(F)F)cc4OCC(F)(F)F)nn3c2)cc1 [Example 01.27, 4-{[6-(4-{[(4-fluorophenyl)acetyl]amino}phenyl)[1,2,4]triazolo[1,5-α]-pyridin-2-yl]amino}-3-(2,2,2-trifluoroethoxy)-N-(2,2,2-trifluoroethyl)-benzamide] | ≤ 1 nM | <10% | ≤ 1 nM
11 | CCOc1cc(C(=O)NCCS(C)(=O)=O)ccc1Nc1nc2ccc(-c3ccc(NC(=O)Cc4ccc(F)cc4)cc3)cn2n1 [Example 01.28, 3-ethoxy-4-{[6-(4-{[(4-fluorophenyl)acetyl]amino}phenyl)[1,2,4]triazolo-[1,5-α]pyridin-2-yl]amino}-N-[2-(methylsulfonyl)ethyl]benzamide] | ≤ 1 nM | <10% | ≤ 1 nM
12 | CC(C)(O)CNC(=O)c1ccc(Nc2nc3ccc(-c4ccc(NC(=O)Cc5ccc(F)cc5)cc4)cn3n2)c(OCC(F)(F)F)c1 [Example 01.29, 4-{[6-(4-{[(4-fluorophenyl)acetyl]amino}phenyl)[1,2,4]triazolo[1,5-α]-pyridin-2-yl]amino}-N-(2-hydroxy-2-methylpropyl)-3-(2,2,2-trifluoro-ethoxy)benzamide] | ≤ 1 nM | <10% | ≤ 1 nM
13 | COc1cc(C(=O)NCCO)ccc1Nc1nc2ccc(-c3ccc(C(=O)NCc4ccc(F)cc4)cc3)cn2n1 [Example 02.1, 4-[(6-{4-[(4-fluorobenzyl)carbamoyl]phenyl}[1,2,4]triazolo[1,5-α]pyridin-2-yl)amino]-N-(2-hydroxyethyl)-3-methoxybenzamide] | 1.1 nM | <10% | ≤ 1 nM
14 | CCOc1cc(C(=O)NCCO)ccc1Nc1nc2ccc(-c3ccc(C(=O)NCc4ccc(F)cc4)cc3)cn2n1 [Example 02.2, 3-ethoxy-4-[(6-{4-[(4-fluorobenzyl)carbamoyl]phenyl}[1,2,4]triazolo[1,5-α]pyridin-2-yl)amino]-N-(2-hydroxyethyl)benzamide] | ≤ 1 nM | <10% | ≤ 1 nM
15 | CCOc1cc(C(=O)NC(C)(C)CO)ccc1Nc1nc2ccc(-c3ccc(C(=O)NCc4ccc(F)cc4)cc3)cn2n1 [Example 02.3, 3-ethoxy-4-[(6-{4-[(4-fluorobenzyl)carbamoyl]phenyl}[1,2,4]triazolo[1,5-α]pyridin-2-yl)amino]-N-(1-hydroxy-2-methylpropan-2-yl)benzamide] | ≤ 1 nM | <10% | ≤ 1 nM
16 | O=C(NCCO)c1ccc(Nc2nc3ccc(-c4ccc(C(=O)NCc5ccc(F)cc5)cc4)cn3n2)c(OCC(F)(F)F)c1 [Example 02.4, 4-[(6-{4-[(4-fluorobenzyl)carbamoyl]phenyl}[1,2,4]triazolo[1,5-α]pyridin-2-yl)amino]-N-(2-hydroxyethyl)-3-(2,2,2-trifluoroethoxy)benzamide] | ≤ 1 nM | <10% | ≤ 1 nM
17 | COc1cc(C(=O)NCC(C)(C)O)ccc1Nc1nc2ccc(-c3ccc(C(=O)NCc4ccc(F)cc4)cc3)cn2n1 [Example 02.5, 4-[(6-{4-[(4-fluorobenzyl)carbamoyl]phenyl}[1,2,4]triazolo[1,5-α]pyridin-2-yl)amino]-N-(2-hydroxy-2-methylpropyl)-3-methoxybenzamide] | 1.8 nM | <10% | ≤ 1 nM
18 | COc1cc(S(C)(=O)=O)ccc1Nc1nc2ccc(-c3ccc(C(=O)NCc4ccc(F)cc4)cc3)cn2n1 [Example 02.6, N-(4-fluorobenzyl)-4-(2-{[2-methoxy-4-(methylsulfonyl)phenyl]amino}-[1,2,4]triazolo[1,5-α]pyridin-6-yl)benzamide] | 4.3 nM | <10% | ≤ 1 nM
